Common to all, as to type: in vivo
The subject of one assay is Pharbitis purpurea. Put plainly: Post-emergence herbicidal action, PHBPU. The settings on record: for herbicidal action PHBPU: Dosage 80 g/ha. The method in brief: (§1)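 Treatment: post-emergence spray, one-leaf stage. Medium: sandy loam, greenhouse. Carrier: 600–800 l/ha water, 0.2% wetting agent. Read-out: visual % activity at ~3 weeks, untreated plants as reference.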
Assay [1] has as its system Echinochloa crus-galli. Nature of the assay: Post-emergence herbicidal action, ECHCG. Also noted: key: % herbicidal action vs untreated; 100 = plants died, 0 = like control. The settings on record: for herbicidal action ECHCG: Dosage 80 g/ha. In outline: as §1
A further assay relates to Setaria viridis. Put plainly: Post-emergence herbicidal action, SETVI. Further details: key: % herbicidal action vs untreated; 100 = plants died, 0 = like control. The settings on record: for herbicidal action SETVI: Dosage 80 g/ha. In outline:
as §1

The next assay has as its system Amaranthus retroflexus. Put plainly: Pre-emergence herbicidal action, AMARE. Further details: key to Herbicidal action against AMARE: % activity: 100 = plants have died, 0 = like control plants. The settings on record: for herbicidal activity AMARE: scored visually after 3 weeks vs untreated controls (100% = plants have died). The method in brief: (§2)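 Visual scoring after 3 weeks in the greenhouse, relative to untreated pots, gave percent activity, where 100% means dead plants and 0% equals controls. Treatment was a pre-emergence soil-surface spray of WP or EC formulations in water (600 to 800 l/ha, 0.2% wetting agent) over seeds covered in sandy loam.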

The subject of assay [2] is Echinochloa crus-galli. Nature of the assay: Pre-emergence herbicidal action, ECHCG. Further details: key to Herbicidal action against ECHCG: % activity: 100 = plants have died, 0 = like control plants. As to conditions: for herbicidal activity ECHCG: scored visually after 3 weeks vs untreated controls (100% = plants have died). In outline:
as §2

The test system of another assay is Alopecurus myosuroides. Nature of the assay: Post-emergence herbicidal action, ALOMY. Also noted: key: % herbicidal action vs untreated; 100 = plants died, 0 = like control. The settings on record: for herbicidal action ALOMY: Dosage 80 g/ha. In outline: as §1
The mark [3] stands for this setting: comparative experiment, post-emergence, 20 g of a.i./ha.
[4] abbreviates: comparative experiment, 80 g of a.i./ha.

The values that follow come from patent US12492173B2, “Herbicidal substituted N-tetrazolyl aryl carboxamides” (Bayer Aktiengesellschaft, priority 2019, dated 2025).

Regarding `CCCn1nnnc1NC(=O)c1ccc(C(F)F)c(CSCC)c1Cl` [Example 3-323], the “herbicidal action PHBPU” value in the assay on Pharbitis purpurea is recorded as 90. For the same compound, the “herbicidal action ECHCG” value in the assay on Echinochloa crus-galli [1] stood at 100. The “herbicidal action SETVI” value in the assay on Setaria viridis came to 100. Besides, the “herbicidal activity AMARE” value in the assay on Amaranthus retroflexus (dosage 320 g/ha) amounted to 100%. Besides, the “herbicidal activity ECHCG” value in the assay on Echinochloa crus-galli [2] (dosage 320 g/ha) came to 100%. Also, the “herbicidal action ALOMY” value in the assay with Alopecurus myosuroides is given as 80.

Take `CCCn1nnnc1NC(=O)c1ccc(I)c(C[S+](C)[O-])c1Cl` (stereo not drawn) [Example 3-363]: the “herbicidal action PHBPU” value in the assay on Pharbitis purpurea is 90. Moreover, the “herbicidal action ECHCG” value is on record as 100 with Echinochloa crus-galli [1] and 100% in the assay on Echinochloa crus-galli [2] (dosage 320 g/ha). Besides, in the assay with Setaria viridis, the “herbicidal action SETVI” value was found to be 100. For the same compound, in the assay on Amaranthus retroflexus (dosage 320 g/ha), the “herbicidal action AMARE” value is given as 100%. For the same compound, the “herbicidal action ALOMY” value in the assay on Alopecurus myosuroides amounted to 80.

On to `CCCn1nnnc1NC(=O)c1ccc(C(F)(F)F)c(C[S+]([O-])CC)c1Br` (stereo not drawn) [Example 3-384], for which, in the assay with Pharbitis purpurea, the “herbicidal action PHBPU” value was 80. Also, the “herbicidal action ECHCG” value with Echinochloa crus-galli [1] is on record as 90. Also, in the assay on Setaria viridis, the “herbicidal action SETVI” value is on record as 100. Also, the “herbicidal activity AMARE” value with Amaranthus retroflexus (dosage 320 g/ha) worked out at 100%. For the same compound, the “herbicidal activity ECHCG” value with Echinochloa crus-galli [2] (dosage 320 g/ha) was 100%. Besides, the “herbicidal action ALOMY” value in the assay on Alopecurus myosuroides worked out at 80.

As for `CCS(=O)(=O)c1c(C(F)(F)F)ccc(C(=O)Nc2nnnn2C)c1Br` [Example V-13, 2-bromo-3-(ethylsulfonyl)-N-(1-methyl-1-1H-tetrazol-5-yl)-4-(trifluoromethyl)benzamide, reference compound], the “Herbicidal action against PHBPU” value in the assay on Pharbitis purpurea (setting [3]) was found to be 0. Also, the “Herbicidal action against ECHCG” value in the assay on Echinochloa crus-galli [1] (setting [3]) and in the assay with Echinochloa crus-galli [2] (setting [4]) was 0 in each case. In addition, in the assay on Setaria viridis (setting [3]), the “Herbicidal action against SETVI” value is recorded as 0. Moreover, the “Herbicidal action against AMARE” value in the assay on Amaranthus retroflexus (setting [4]) is reported as 0. For the same compound, the “Herbicidal action against ALOMY” value in the assay with Alopecurus myosuroides (setting [3]) was found to be 0.
